For data set [1], the system named is men with T1DM and healthy men. The class given is in vivo, human.
In the next data set the test system is patients with T2D. The class given is in vivo, human. Particulars: for change in LVEF with acipimox: resting.
The test system of another data set is HFD/STZ C57Bl/6 mice. The class given is in vivo, mouse.
Another data set has as its system C57BL/6J mice. It counts as in vivo, mouse.
Data set [2] concerns wounds of streptozotocin-diabetic C57BL/6 mice. The class given is in vivo, mouse.
The subject of data set [3] is human subcutaneous primary preadipocytes. The class given is cell-based. Particulars: for reduction of basal and insulin-stimulated glucose uptake: dose-dependent, exposure during differentiation.
The subject of data set [4] is patients with obesity and T2D. It counts as in vivo, human.
The next data set relates to human delta cells. The class given is cell-based.
The next data set deals with EndoC-βH1 cells. The class given is cell-based, human. Particulars: 100 nM.
For data set [5] the following is noted: FAERS 2013 Q1-2020 Q4.
In data set [6] the test system is β-cells from Ins2GFP knock-in mice. The class given is cell-based, mouse.
Data set [7] relates to youth with type 2 diabetes. The class given is in vivo, human.
The test system of data set [8] is skeletal muscle of type 2 diabetes patients. Particulars: 5 weeks.
For data set [9], the system named is individuals with prediabetes. Particulars: 2 weeks.
The subject of the next data set is T2DM and NGT subjects. The settings on record: for EGP after drug: 10 mg single dose, 4 hours; for increase in renal glucose production (RGP): non-significant.
Data set [10] deals with adult participants, liver steatosis by VCTE. The settings on record: multivariable adjusted.
The next data set deals with human β-cells. The class given is cell-based.
In the next data set the test system is participants with NAFLD. The class given is in vivo, human.
Another data set has as its system patients with T2DM. It counts as in vivo, human. Particulars: all.
Data set [11] concerns people with type 2 diabetes. It counts as in vivo, human.
The mark [12] stands for this setting: before RYGB, GIP […], GLP-1 1 pmol/kg/min, ~15 mM glucose.
[13] abbreviates: 10 mg once daily, LS mean (95% CI).

Results on 25 molecules are retold here after publication PMC9362525 (Diabetologia, 2022).

Read-outs that look alike come from different tables or passages of the source.

Regarding 3-hydroxybutyrate [3-OHB], the “blood D-3-OHB concentration during infusion” value in data set [1] (CTR, from 0.2±0.03) was determined as 1.0 ± 0.1 mmol/L; in [1] (T1DM, from 0.2±0.06) it was 1.2 ± 0.12 mmol/L. Further, the “circulating FFA concentration after infusion” value turned out to be 0.21 ± 0.04 mmol/L in data set [1] (CTR, from 0.48±0.09) and 0.15 ± 0.03 mmol/L in [1] (T1DM, from 0.68±0.12).

In the case of `Cc1cnc(C(=O)O)c[n+]1[O-]` [acipimox], the “reduction of FFAs” value with patients with T2D (acute, at all visits) is ~ 35%. The “change in LVEF with acipimox” value in the data set with patients with T2D (during empagliflozin treatment) was -6±2%; in the data set on patients with T2D (during insulin treatment), -5.4±1%.

Turning to Irisin, the “change in body weight vs HFD/STZ” value in the data set with HFD/STZ C57Bl/6 mice (0.5 μg/g, 14 days) is given as -13%. In addition, in the data set with HFD/STZ C57Bl/6 mice (0.5 μg/g, 14 days, n=4), the “change in glycemia vs HFD/STZ” value is listed as -31%. For the same molecule, in the data set with HFD/STZ C57Bl/6 mice (mouse, in vivo), the “change in GSIS AUC vs HFD/STZ” value was “+23%”, the “change in alpha-cell area vs HFD/STZ” value is listed as -49%, the “change in beta-cell area vs HFD/STZ” value is “+34%” and the “change in insulin content vs HFD/STZ” value is “+36%”. Also, the “change in islets volume vs HFD/STZ” value in the data set with HFD/STZ C57Bl/6 mice (mouse, in vivo) is “+61%”. Further, the “increase in beta-cell proliferation rate” value in the data set on HFD/STZ C57Bl/6 mice (vs SD and HFD/STZ) is on record as 9 fold. This molecule also had a final body weight with C57BL/6J mice (0.5 μg/g i.p., 4 weeks, HFD 49.67 ± 1.48) of 44.87 ± 1.42 g. The fat mass in the data set with C57BL/6J mice (HFD 14.56 ± 0.43) is 11.75 ± 0.78 g. Moreover, the fat/weight with C57BL/6J mice (HFD 29.37 ± 0.75) is on record as 26.08 ± 1.09%.

Consider Bone morphogenetic protein-7 [BMP7], for which, in data set [2] (0.5 μg per wound/day topical, vs vehicle), the “acceleration of wound closure” value is listed as 20%. Besides, in data set [2] (mouse, in vivo), the “number of lymphocytes in diabetic wounds” value is on record as “did not change”. In [2] (vs vehicle-treated wounds), the collagen deposition higher was determined as 35%, the “increase in area of granulation tissue” value was found to be 50% and the “reduction in number of macrophages” value is 30%.

On to `Cc1cc2c(s1)Nc1ccccc1N=C2N1CCN(C)CC1` [OLA, olanzapine], for which the “adipogenesis or lipid and glucose metabolism” value in data set [3] (0.2 and 2 μM during differentiation) was “did not affect”. Also, the “increase in LEP expression” value in data set [3] (present during differentiation) is ~ 2 fold.

As for dehydroaripiprazole [DARI], the “reduction of basal and insulin-stimulated glucose uptake” value in data set [3] is at most 70%.

As to “glucose-dependent insulinotropic peptide [GIP]”, the “augmentation of second phase insulin secretion vs saline-clamp” value in data set [4] (3 months after RYGB) is recorded as “+90±14%”; in [4] (setting [12]), “+96±16%”.

For the molecule GABA, in the data set on human delta cells, the “change in K+-stimulated exocytosis vs diazoxide only” value (“change … vs diazoxide only” below) is “+66%”.

On to `O=C1CCc2ccc(OCCCCN3CCN(c4cccc(Cl)c4Cl)CC3)cc2N1` [ARI, aripiprazole], for which the “reduction of basal and insulin-stimulated glucose uptake” value in [3] is at most 70%. Further, the “reduction of preadipocyte differentiation rate” value in data set [3] (supra-therapeutic concentrations, 14 days) was at most 80%.

With “insulin-like growth factor binding protein 7 [IGFBP7]”, the “insulin secretion normalised to total insulin” value in the data set on EndoC-βH1 cells (72 h, CTRL 5.2, n=4) was 4.0 %/h. For the same molecule, the “C-peptide secretion at 20 mM glucose” value with EndoC-βH1 cells (acute, CTRL 111, n=5) is listed as 90 ng/mg prot/h.

As to `CC[C@H](C)[C@H](NC(=O)[C@H](Cc1ccccc1)NC(=O)[C@H](CCC(=O)O)NC(=O)[C@H](CCCCNC(=O)COCCOCCNC(=O)COCCOCCNC(=O)CC[C@H](NC(=O)CCCCCCCCCCCCCCCCC(=O)O)C(=O)O)NC(=O)[C@H](C)NC(=O)[C@H](C)NC(=O)[C@H](CCC(N)=O)NC(=O)CNC(=O)[C@H](CCC(=O)O)NC(=O)[C@H](CC(C)C)NC(=O)[C@H](Cc1ccc(O)cc1)NC(=O)[C@H](CO)NC(=O)[C@H](CO)NC(=O)[C@@H](NC(=O)[C@H](CC(=O)O)NC(=O)[C@H](CO)NC(=O)[C@@H](NC(=O)[C@H](Cc1ccccc1)NC(=O)[C@@H](NC(=O)CNC(=O)[C@H](CCC(=O)O)NC(=O)C(C)(C)NC(=O)[C@@H](N)Cc1cnc[nH]1)[C@@H](C)O)[C@@H](C)O)C(C)C)C(=O)N[C@@H](C)C(=O)N[C@@H](Cc1c[nH]c2ccccc12)C(=O)N[C@@H](CC(C)C)C(=O)N[C@H](C(=O)N[C@@H](CCCNC(=N)N)C(=O)NCC(=O)N[C@@H](CCCNC(=N)N)C(=O)NCC(=O)O)C(C)C` [semaglutide], in data set [5], the “PRR for gallbladder or biliary diseases” value is 6.267.

Take `N=C(N)NCCC[C@H](N)C(=O)O` [arginine]: in data set [6], the “Ins2 gene activity state” value is recorded as “inducing transitions from Ins2^GFP(low) states to Ins2^GFP(high) states”.

Turning to dulaglutide, in data set [7] (26 weeks), the BMI change entry is recorded as “No effect”. In addition, in data set [7] (pooled doses), the incidence of diarrhoea is 18.4%, the incidence of nausea is listed as 14.6% and the incidence of vomiting is given as 15.5%. Besides, the “patients requiring rescue therapy” value in data set [7] (pooled doses 0.75 and 1.5 mg, 26 weeks) turned out to be 2.9%.

Consider `CCOc1ccc(Cc2cc([C@@H]3O[C@H](CO)[C@@H](O)[C@H](O)[C@H]3O)ccc2Cl)cc1` [dapagliflozin], for which, in [8] (setting [13]), the PCr recovery rate was 23.1 (20.7-25.5) s, the “acetylcarnitine levels in muscle” value is 114.56 (91.16-137.95) pmoles*mg tissue^-1, the lipid droplet size is 0.28 (0.20-0.36) μm^2 and the mitochondrial network integrity is 1.73 (1.33-2.12). Further, the mitochondrial-LD interaction in data set [8] (setting [13]) is reported as 12.51 (9.70-15.32) %. For the same molecule, in [8] (muscle biopsy), the “CPT1A gene expression increase” value was found to be 1.33 fold and the “CPT1B gene expression increase” value is 1.13 fold. Moreover, in [9] (10mg/day), the urinary glucose excretion was found to be 36 gram/24-hour. In data set [9] (10mg/day, whole-room indirect calorimetry), the “24-hour RER” value came out at 0.814 ± 0.006. Also, in data set [9] (ex vivo skeletal muscle), the “coupled mitochondrial respiration on lipid-derived substrates (O2-flux)” value is on record as 68.2 ± 3.2 pmol/mg/s. For the same molecule, in the data set on T2DM and NGT subjects (NGT), the EGP after drug came out at 2.1±0.16 and the “increase in renal glucose production (RGP)” value is given as 0.032 mg/kg.min. In addition, in the data set with T2DM and NGT subjects (T2DM), the EGP after drug was 2.43±0.15 and the “increase in renal glucose production (RGP)” value came to 0.065 mg/kg.min. Also, the “increase in total body EGP” value with T2DM and NGT subjects (in vivo) was 0.45 mg/kg.min.

On to `CCC(CCC(C)O)COC(=O)c1ccccc1C(=O)O` (centres unmarked) [MEHHP, mono(2-ethyl-5-hydroxyhexyl) phthalate], for which, in [10], the “OR for NAFLD per unit increase of urinary concentration” value was 1.01.

In the case of `NC(=O)N1c2ccccc2CC(=O)c2ccccc21` [oxcarbazepine], the “cytokine- and ER stress-induced β-cell death” value in the data set with human β-cells is “protected”.

As for `CC(C)c1nc(N(C)S(C)(=O)=O)nc(-c2ccc(F)cc2)c1/C=C/[C@@H](O)C[C@@H](O)CC(=O)O` [monotherapy, rosuvastatin], the “MRI-PDFF at study completion” value in the data set on participants with NAFLD (baseline 18.1 (combination), 15.0 (monotherapy)) came to 12.4%. The “CAP by transient elastography at completion” value in the data set on participants with NAFLD (baseline 321 (combination), 323 (monotherapy)) is recorded as 311 dB/m.

As for `COc1ccc(Cl)cc1C(=O)NCCc1ccc(S(=O)(=O)NC(=O)NC2CCCCC2)cc1` [glibenclamide], the “incidence of severe hypoglycaemia” value in the data set with patients with T2DM is recorded as 1.3 % per year.

For glucagon-like peptide-1 [GLP-1], the “augmentation of second phase insulin secretion vs saline-clamp” value in data set [4] (3 months after RYGB) was “+233±32%”; in data set [4] (setting [12]) it was “+399±84%”. Moreover, in data set [6], the “Ins2 gene activity state” value is recorded as “inducing transitions from Ins2^GFP(low) states to Ins2^GFP(high) states”.

Turning to `CCCCCCCCCCCCCCCC(=O)N[C@@H](CCC(=O)NCCCC[C@H](NC(=O)[C@H](C)NC(=O)[C@H](C)NC(=O)[C@H](CCC(N)=O)NC(=O)CNC(=O)[C@H](CCC(=O)O)NC(=O)[C@H](CC(C)C)NC(=O)[C@H](Cc1ccc(O)cc1)NC(=O)[C@H](CO)NC(=O)[C@H](CO)NC(=O)[C@@H](NC(=O)[C@H](CC(=O)O)NC(=O)[C@H](CO)NC(=O)[C@@H](NC(=O)[C@H](Cc1ccccc1)NC(=O)[C@@H](NC(=O)CNC(=O)[C@H](CCC(=O)O)NC(=O)[C@H](C)NC(=O)[C@@H](N)Cc1cnc[nH]1)[C@@H](C)O)[C@@H](C)O)C(C)C)C(=O)N[C@@H](CCC(=O)O)C(=O)N[C@@H](Cc1ccccc1)C(=O)N[C@H](C(=O)N[C@@H](C)C(=O)N[C@@H](Cc1c[nH]c2ccccc12)C(=O)N[C@@H](CC(C)C)C(=O)N[C@H](C(=O)N[C@@H](CCCNC(=N)N)C(=O)NCC(=O)N[C@@H](CCCNC(=N)N)C(=O)NCC(=O)O)C(C)C)[C@@H](C)CC)C(=O)O` [liraglutide], the “PRR for gallbladder or biliary diseases” value in [5] is reported as 5.001.

With `CCc1ccc(CCOc2ccc(CC3SC(=O)NC3=O)cc2)nc1` (centres unmarked) [pioglitazone], the “achieved HbA1c” value in data set [11] (16 weeks, pioglitazone 30mg, sitagliptin 100mg, canagliflozin 100mg) worked out at 59.5 mmol/mol. Besides, the “weight on therapy higher than other drugs” value in data set [11] ([95%CI]) is 2.6 [2.3, 2.9] kg.

For the molecule `CNC[C@H](O)c1ccc(O)c(O)c1` [adrenaline], in the data set with human delta cells, the “change in K+-stimulated exocytosis” value is recorded as “+56%” and the “change … vs diazoxide only” value is -59%.

In the case of `CCC(CCC(C)=O)COC(=O)c1ccccc1C(=O)O` (centres unmarked) [MEOHP, mono(2-ethyl-5-oxohexyl) phthalate], the “OR for NAFLD per unit increase of urinary concentration” value in data set [10] worked out at 1.01.

Regarding `C=C[C@@]1(C)CC(=O)[C@]2(O)[C@@]3(C)[C@@H](O)CCC(C)(C)[C@@H]3[C@H](O)[C@H](OC(C)=O)[C@@]2(C)O1` [forskolin], the “change … vs diazoxide only” value in the data set with human delta cells is listed as “+68%”.

With `CCCC(=O)O` [sodium butyrate], the “Ins2 gene activity state” value in data set [6] is listed as “inducing transitions from Ins2^GFP(low) states to Ins2^GFP(high) states”.
